Columns and labels:
[1] = test system: ALL patient donor 90811 xenograft; test: Disease burden (blast cells) in bone marrow, patient-derived ALL xenograft donor 90811; type: in vivo, mouse; details: for Disease Burden in Bone Marrow, CD45/10% Mean: NOD-scid IL2Rγ null mice, dosed at 18% blasts in sentinels, bone marrow counts day 10 post-dose
From the text: Establishment of patient-derived xenografts: NOD-scid IL2Rγ null mice were used as hosts for patient-derived xenografts. Twenty-four hours prior to cell implant, mice received 1.0 Gy irradiation using a Radsource 2000 irradiator (Radsource technologies, Suwanee, Ga.). Frozen bone marrow isolates of mononuclear cells from patients with acute lymphoblastic leukemia were obtained from […] (Alameda, Calif.). Cells were thawed in a warm water bath. After thaw, RPMI-1640 media was slowly added to the bone marrow isolate suspension. The cells were washed with PBS and centrifuged to remove DMSO in freezing media. After centrifugation, the cells were suspended in PBS. For, implantation, 3.6×10^6 cells were injected into the tail vein of female NOD-scid IL2Rγ null mice designated as donor, or passage 0 mice. Approximately 7 weeks after implant, mice were euthanized. Bone marrow and spleen were collected using sterile technique. Spleens were mechanically disrupted using a sterile syringe end and mesh filter. Connective tissues from spleens were filtered out using 40um filters. Splenocytes and bone marrow cells were treated with red blood cell buffer lysis (BD lysis buffer, BD biosciences, San Jose, Calif.) for 15 minutes at room temperature. A sample of the cells was utilized for confirmation of engraftment. The percentage of blast cells was determined by the number of CD45 FITC, CD19 PE-Cy.5 (BD Biosciences, San Jose, Calif.) CD10 APC (Biolegend, San Diego, Calif.) triple positive cells via flow cytometry (FACScalibur, BD Biosciences, San Jose, Calif.). The majority of the cells (passage 1) were placed into freezing media (90% Heat inactivated fetal bovine serum and 10% DMSO). Subsequent xenograft experiments utilized passage 1 cells. Cells were implanted in the same manner done for donor mice (passage 0 mice). Starting 14-21 days post implant, 2-3 sentinel mice were euthanized to determine the percentage blast cells in the bone marrow. […] SGN-CD19A and non-specific ADC (also called h00-1269) were administered as a single intraperitoneal injection at 1.0, 3.0, or 10.0 mg/kg dose. Cyclophosphamide at 15 or 30 mg/kg (Baxter, Deefield, Ill.), Vincristine at 0.188 or 0.375 mg/kg (Hospira, Lake Forest, Ill.), and Doxorubicin at 1.24 or 2.475 mg/kg (Pfizer, NY, NY) were combined and administered as a single dose via intravenous injection into the lateral tail vein. Dexamethasone at 7.5 or 15 mg/kg (APP Pharmaceuticals, Schaumberg, Ill.) was given daily via intraperitoneal injection for five days. At pre-determined times post treatment, mice were euthanized for collection of bone marrow and determination of blast cell percentage via flow cytometry.
The response of human patient-derived ALL cells to single agent SGN-CD19A or CVAD was determined in mouse xenograft models. Bone marrow isolates from patients with ALL (donor 06343 and donor 90811) were used to establish xenografts in NOD-scid IL2Rgamma^null mice. After engraftment, patient-derived bone marrow cells were frozen and are referred to as passage 1 cells. Passage 1 cells were implanted into mice and assessed for presence of blast cells (CD45/CD10/CD19 positive cells). […] Mice were given either 1, 3, or 10 mg/kg of SGN-CD19A or 10 mg/kg of a non-specific ADC conjugated to MMAF (also called h00-1269). A maximum tolerated dose (MTD) of CVAD had previously been determined in the same mouse strain. Mice were given either CVAD at the MTD or at 50% of the MTD.
The response of human patient-derived ALL cells to the combination of SGN-CD19A and CVAD was also determined in the mouse xenograft model. Patient samples were engrafted as described above.

NALM6 cells = test: In vitro cytotoxicity (CellTiter-Glo) on NALM6 cells; type: cell-based; details: 96 hours, minimally/low effective dose used for the combination
Procedure: Isobolograms: Cells were plated at 5000 per well in 384 well plates using Fluid-X liquid handler (Fluid-X, Boston, Mass.). SGN-CD19A and Vincristine were plated separately and serial diluted in 2×96 well plates per drug. SGN-CD19A and Vincristine were added to 384 well plates, either alone or in combination at range above and below the IC50 for each single agent using the Hamilton STAR automation robotics (Hamilton, Reno, Nev.). Cells were kept at 37° C. for 96 hours. Cell viability readout was performed using the CellTiter-Glo assay (Promega, Madison, Wis.). Luminescence was measured using the Envision plate reader (Perkin Elmer, Waltham, Mass.). Activity was determined by the luminescence of treated cells compared to that of untreated cells.
To verify the results of the in vivo SGN-CD19A plus vincristine or SGN-CD19A plus doxorubicin combinations, in vitro cytotoxicity experiments were performed. […] The concentration of each agent was serially diluted to include doses that would have no cytotoxicity to doses that would kill all cells. […] NALM-6 cells were also incubated with a combination of SGN-CD19A and doxorubicin, in a similar manner.

Row | Molecule | Disease Burden in Bone Marrow, CD45/10% Mean [1] | cell kill as a single agent (NALM6 cells) | single agent dose response, blast cells in the bone marrow ([1]; SGN-CD19A 1, 3 or 10 mg/kg, CVAD at MTD or 50% of MTD, FIGS. 2B, 2D)
1 | O=P1(N(CCCl)CCCl)NCCCO1 (centres unmarked) [Cyclophosphamide] | 94.4% |  | 
2 | C[C@@H]1C[C@H]2[C@@H]3CCC4=CC(=O)C=C[C@]4(C)[C@@]3(F)[C@@H](O)C[C@]2(C)[C@@]1(O)C(=O)CO [Dexamethasone] | 91.8% |  | 
3 | COc1cccc2c1C(=O)c1c(O)c3c(c(O)c1C2=O)C[C@@](O)(C(=O)CO)C[C@@H]3O[C@H]1C[C@H](N)[C@H](O)[C@H](C)O1 [Doxorubicin] | 86.7% | approximately 20% | 
4 | CC[C@]1(O)C[C@H]2CN(CCc3c([nH]c4ccccc34)[C@@](C(=O)OC)(c3cc4c(cc3OC)N(C=O)[C@H]3[C@@](O)(C(=O)OC)[C@H](OC(C)=O)[C@]5(CC)C=CCN6CC[C@]43[C@@H]65)C2)C1 [Vincristine] | 32.2% | approximately 5% | 
5 | SGN-CD19A: CD19-directed antibody-drug conjugate: humanized antibody hBU12, maleimidocaproyl linker, monomethyl auristatin F (MMAF); average four drugs per antibody (conjugate) VL: EIVLTQSPATLSLSPGERATLSCSASSSVSYMHWYQQKPGQAPRLLIYDTSKLASGIPARFSGSGSGTDFTLTISSLEPEDVAVYYCFQGSVYPFTFGQGTKLEIKR VH: QVQLQESGPGLVKPSQTLSLTCTVSGGSISTSGMGVGWIRQHPGKGLEWIGHIWWDDDKRYNPALKSRVTISVDTSKNQFSLKLSSVTAADTAVYYCARMELWSYYFDYWGQGTLVTVSS | 18.2% |  | decreasing amounts of blast cells in the bone marrow

Reference: patent US20180028681A1, “COMBINATION THERAPY USING A CD19-ADC AND VINCRISTINE” (SEATTLE GENETICS, INC., priority 2015, published 2018)
